Data published in the NIST ThermoML archive (doi:10.1021/je049788h).

Assay: xn = mol fraction of the nth substance listed
Settings: 101.3 kPa, Liquid; for viscosity: Capillary tube (Ostwald / Ubbelohde) method; for mass density: Vibrating tube method

COCCOCCOCCOCCOC [2,5,8,11,14-pentaoxapentadecane] + O
Settings	mass density, 298.15 K [kg/m3]	mass density, 313.15 K [kg/m3]	mass density, 323.15 K [kg/m3]	mass density, 333.15 K [kg/m3]	mass density, 343.15 K [kg/m3]	viscosity, 298.15 K [mPa·s]	viscosity, 313.15 K [mPa·s]	viscosity, 323.15 K [mPa·s]	viscosity, 333.15 K [mPa·s]	viscosity, 343.15 K [mPa·s]
x1 = 0.0199	1013.95	1006.73	1001.25	995.13	988.58	3.11	2.11	1.71	1.41	1.18
x1 = 0.051	1020.21	1011.89	1005.7	999.35	991.92	4.04	2.64	2.12	1.69	1.41
x1 = 0.1066	1038.9	1025.7	1016.67	1007.47	998.09	6.17	3.62	2.7	2.08	1.67
x1 = 0.195	1033.66	1019.8	1010.4	1000.92	991.28	6.22	3.77	2.86	2.24	1.8
x1 = 0.3008	1026.07	1012.12	1002.75	993.27	983.67	5.29	3.39	2.63	2.12	1.73
x1 = 0.4088	1020.42	1006.46	997.07	987.6	978.07	4.59	3.08	2.42	1.97	1.65
x1 = 0.5116	1016.56	1002.6	993.21	983.77	974.27	4.14	2.82	2.26	1.86	1.56
x1 = 0.6252	1013.52	999.55	990.2	980.79	971.34	3.81	2.65	2.15	1.78	1.51
x1 = 0.7016	1011.64	997.66	988.33	978.95	969.56	3.65	2.57	2.1	1.75	1.5
x1 = 0.8037	1009.81	995.86	985.65	977.24	967.88	3.51	2.49	2.06	1.73	1.47
x1 = 0.9044	1008.44	994.51	985.23	975.95	966.66	3.41	2.44	2.01	1.69	1.45
x1 = 0.9505	1007.83	993.92	984.67	975.4	966.13	3.37	2.42	2.002	1.69	1.41
x1 = 1	1006.65	993.28	984.05	974.8	965.55	3.38	2.42	2.004	1.69	1.42
